Measurements taken from patent US7943638B2, “Carboxamide compound and use of the same” (Sumitomo Chemical Company, Limited, priority 2005, dated 2011).

Tested on: wheat scab (Fusarium culmorum)
Test: Wheat scab (Fusarium culmorum) controlling effect test (preventive effect)
Format: in vivo
Details: 500 ppm flowable preparation, foliage spray on wheat (Shirogane komugi), 23° C. high humidity 4 days, then 23° C. greenhouse 3 days
Method: A plastic pot was charged with a sand loam, and a wheat (Name of plant variety: Shirogane komugi) was seeded, and was grown for 8 days in a greenhouse. Each flowable preparation of the present compound 4 which had been obtained according to Preparation Example 6 was diluted with water to a predetermined concentration (500 ppm) to prepare a spraying solution. Each spraying solution was foliage-sprayed so that the solution was sufficiently adhered to the above adhered to wheat leaves. After spraying, the wheat was air-dried to an extent that the spraying solution on the leaves was dried, then a spore suspension of wheat scab (Fusarium culmorum) (containing about 2000000 spores per 1 ml of the suspension) was spraying-inoculated (at a ratio of about 2 ml per one plant). After inoculation, the wheat was placed at 23° C. under high humidity for 4 days, then placed in a 23° C. greenhouse for 3 days. Thereafter, the controlling effect was investigated.
As a result, an area of a lesion in a plant treated with the present compound 4 was 10% or less of an area of a lesion in a non-treated plant.

## Cc1cc(O)c(C(=O)Nc2cccnc2)c(=O)n1C [present compound 4, N-(3-pyridyl)-1,6-dimethyl-4-hydroxy-2-oxo-1,2-dihydropyridine-3-carboxamide]
  area of a lesion in a treated plant relative to area of a lesion in a non-treated plant: ≤ 10%
